pIC50: −log10 of the molar value.

This is an account of results in patent US8846909B2, “Bicyclic heteroaryl kinase inhibitors and methods of use” (University of Rochester, priority 2010, dated 2014).

Data set [1] has as its target T1, MLK3 (Homo sapiens, UniProt Q16584).
T1 construct: purchased Dundee DU8313
In words: Radiometric filter plate MLK3 assay. Note: 2 µM cold ATP (Km). The note with it: read-out: MK3 IC50. Format: biochemical. The protocol:
After a twenty minute incubation, the reactions were washed through filter plates and read on a scintillation counter. Results are shown in Table 10 below, in which +++ indicates ≦0.1 μM, ++ indicates >0.1 μM and ≦1 μM, and + indicates >1 μM.

Data set [2] can be described thus: Pharmacokinetic evaluation in mice (plasma and brain AUC). Format: in vivo. Also noted: unit not given here. The note with it: CL57 BL/6 mice, single IV injection 10 mg/kg, brain homogenate. The protocol: Several compounds disclosed herein were evaluated in a standard murine pharmacokinetic model. […] Three mice in each group were used for blood and brain collection at each time point. […] The brain of each animal was collected after the final blood collection. The whole tissue was harvested, excised and rinsed by saline, dried by filter paper, and then placed into one tube per tissue per animal. All samples were stored at −20° C. until bioanalysis. Compound concentrations in plasma and brain homogenate were determined using a high performance liquid chromatography/mass spectrometry (HPLC/MS/MS) method (Agilent 1100 series HPLC, AB Inc. API4000 triple-quadrupole with an ESI interface and Analyst 1.4 software). Results in the form of area under the time-versus-concentration curve (AUC) are given below in Table 11.

The subject of data set [3] is primary rat hippocampal neurons and dorsal root ganglion neurons. The note with it: cited from earlier work.
Data set [4] addresses T2, MLK3 (Rattus norvegicus, UniProt Q66HA1).
T2 construct: autophosphorylation of MLK3 in primary rat neurons; endogenous in cells; host or cells: primary rat neurons
The note with it: primary rat neurons; cited from earlier work.

The subject of data set [5] is in vivo model of HIV-1 infection. As to conditions: reversing microglial activation, restoring normal synaptic architecture; cited from earlier work.

T1 sequence (Q16584 whole entry): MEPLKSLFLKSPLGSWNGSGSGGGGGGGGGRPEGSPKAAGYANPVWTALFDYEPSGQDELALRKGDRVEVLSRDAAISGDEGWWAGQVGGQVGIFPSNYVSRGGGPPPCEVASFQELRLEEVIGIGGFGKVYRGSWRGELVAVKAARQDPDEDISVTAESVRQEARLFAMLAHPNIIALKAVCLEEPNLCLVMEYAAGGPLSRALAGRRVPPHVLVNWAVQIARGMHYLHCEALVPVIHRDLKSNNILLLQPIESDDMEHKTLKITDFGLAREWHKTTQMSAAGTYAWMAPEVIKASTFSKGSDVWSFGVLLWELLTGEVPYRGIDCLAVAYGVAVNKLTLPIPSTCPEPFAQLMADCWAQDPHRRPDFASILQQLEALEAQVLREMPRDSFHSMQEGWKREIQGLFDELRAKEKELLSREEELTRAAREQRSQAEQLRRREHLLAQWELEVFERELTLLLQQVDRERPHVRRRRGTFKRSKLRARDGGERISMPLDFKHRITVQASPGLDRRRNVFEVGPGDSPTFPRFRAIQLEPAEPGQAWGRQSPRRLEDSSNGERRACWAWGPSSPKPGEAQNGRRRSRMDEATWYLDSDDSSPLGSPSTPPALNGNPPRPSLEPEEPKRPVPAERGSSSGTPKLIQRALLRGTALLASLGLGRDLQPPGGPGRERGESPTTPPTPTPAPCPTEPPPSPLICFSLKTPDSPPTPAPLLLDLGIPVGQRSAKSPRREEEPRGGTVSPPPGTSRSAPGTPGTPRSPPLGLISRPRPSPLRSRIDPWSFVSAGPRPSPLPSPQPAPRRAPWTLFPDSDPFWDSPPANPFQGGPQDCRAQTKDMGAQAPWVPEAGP
T2 sequence (Q66HA1 whole entry): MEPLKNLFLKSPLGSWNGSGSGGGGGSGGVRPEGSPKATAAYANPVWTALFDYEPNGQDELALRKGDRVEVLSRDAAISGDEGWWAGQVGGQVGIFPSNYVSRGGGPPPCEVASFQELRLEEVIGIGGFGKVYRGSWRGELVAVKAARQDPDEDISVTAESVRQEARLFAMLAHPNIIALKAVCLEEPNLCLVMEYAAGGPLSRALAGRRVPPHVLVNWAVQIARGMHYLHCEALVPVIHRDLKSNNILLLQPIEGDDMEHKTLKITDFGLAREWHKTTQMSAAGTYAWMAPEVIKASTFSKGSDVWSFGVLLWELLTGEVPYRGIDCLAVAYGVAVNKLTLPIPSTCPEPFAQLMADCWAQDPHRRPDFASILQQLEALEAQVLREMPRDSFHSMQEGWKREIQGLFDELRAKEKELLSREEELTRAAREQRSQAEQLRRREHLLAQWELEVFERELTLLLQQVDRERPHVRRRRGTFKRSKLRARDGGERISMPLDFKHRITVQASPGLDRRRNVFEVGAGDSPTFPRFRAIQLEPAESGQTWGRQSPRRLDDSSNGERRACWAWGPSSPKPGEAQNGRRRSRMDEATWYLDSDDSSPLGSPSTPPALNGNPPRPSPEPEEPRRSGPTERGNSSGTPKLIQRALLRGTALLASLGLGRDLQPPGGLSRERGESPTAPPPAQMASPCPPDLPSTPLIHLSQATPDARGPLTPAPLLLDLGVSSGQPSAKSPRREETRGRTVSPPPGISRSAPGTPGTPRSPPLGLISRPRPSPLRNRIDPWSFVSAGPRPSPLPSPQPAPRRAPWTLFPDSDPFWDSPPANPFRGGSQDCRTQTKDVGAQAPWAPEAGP

As for `COc1cc(-c2cnc3[nH]cc(-c4cnc(N)nc4)c3c2)cc(OC)c1OC` [Example 17, 5-(5-(3,4,5-trimethoxyphenyl)-1H-pyrrolo[2,3-b]pyridin-3-yl)pyrimidin-2-amine], the pIC50 (usually −log10 of the IC50, conventionally taken in molar units) in data set [1] was greater than 7.00. Moreover, the “AUC Brain” value in data set [2] was “− (− indicates <500)”.
For `CN1CCN(Cc2ccc(-c3cnc4[nH]cc(-c5ccc6[nH]ccc6c5)c4c3)cc2)CC1` [Example 32, 3-(1H-indol-5-yl)-5-(4-((4-methylpiperazin-1-yl)methyl)phenyl)-1H-pyrrolo[2,3-b]pyridine], in data set [2], the “AUC Brain” value is on record as “+ (+ indicates ≧500)”.
For the molecule `CCSCc1ccc2c(c1)c1c3c(c4c5cc(CSCC)ccc5n5c4c1n2[C@H]1C[C@](O)(C(=O)OC)[C@]5(C)O1)CNC3=O` [CEP1347], the “protection of neurons from lethal effects of HIV-1 gp120” value in data set [3] was “can protect”. Besides, the “Tat and gp120 induced autophosphorylation of MLK3” value in data set [4] is “abolished”. Also, the “neuroprotection in in vivo model of HIV-1 infection” value in data set [5] is “neuroprotective”.
Regarding `COc1cc(-c2cnc3[nH]cc(-c4ccc(N)nc4)c3c2)cc(OC)c1OC` [Example 18, 5-(5-(3,4,5-trimethoxyphenyl)-1H-pyrrolo[2,3-b]pyridin-3-yl)pyridin-2-amine], the pIC50 in data set [1] is greater than 7.00. Also, in data set [2], the “AUC Brain” value is reported as “− (− indicates <500)”.
Taken in the same sequence, the figures for `Nc1ccc(-c2cnc3[nH]cc(-c4ccc5[nH]ccc5c4)c3c2)cn1` [Example 4, 5-(3-(1H-indol-5-yl)-1H-pyrrolo[2,3-b]pyridin-5-yl)pyridin-2-amine] were greater than 7.00 and “− (− indicates <500)”.
Taken in the same sequence, the figures for `Nc1ncc(-c2cnc3[nH]cc(-c4ccc5[nH]ccc5c4)c3c2)cn1` [Example 9, 5-(3-(1H-indol-5-yl)-1H-pyrrolo[2,3-b]pyridin-5-yl)pyrimidin-2-amine] were greater than 7.00 and “+ (+ indicates ≧500)”.
For the molecule `COc1cc(-c2cnc3[nH]cc(-c4ccc5[nH]ccc5c4)c3c2)cc(OC)c1OC` [Example 1, 3-(1H-indol-5-yl)-5-(3,4,5-trimethoxyphenyl)-1H-pyrrolo[2,3-b]pyridine], the “AUC Brain” value in data set [2] is recorded as “+ (+ indicates ≧500)”.
